Results reported in patent publication US9636342B2, “Method for treating prostate cancer” (UNIVERSITY OF SOUTH CAROLINA, priority 2012, dated 2017).

What was measured:
[1] = target: CDK8 (Homo sapiens, UniProt P49336); experiment: Senexin B inhibition of CDK8 kinase activity (Kd); type: binding
Text: The invention provides a method for treating prostate cancer in a subject comprising administering to the subject an effective amount of a selective inhibitor of one or more of CDK8 and CDK19. […] For purposes of the invention, “specific inhibitors of CDK8/19” are small molecule compounds that inhibit CDK8 or CDK8 and CDK19 to a greater extent than they inhibit certain other CDKs. In some embodiments, such compounds further inhibit CDK8 to a greater extent than CDK9. In preferred embodiments, such greater extent is at least 2-fold more than CDK9. Compounds that are useful in the invention are described in co-pending US Patent Publications 20120071477 and 20120071477 and PCT Publication WO2013/116786. Extent of inhibition is measured by the assays taught in co-pending PCT Publication WO2013/116786.
(§1) These small molecules selectively bind to the ATP pockets of CDK8/19 to inhibit their kinase activity.

[2] = tested on: CWR22rv1 cells; experiment: Growth of androgen-independent CWR22rv1 cells in androgen-depleted CSS media (cell count); type: cell-based; settings: for growth (total cell number): 5 μM Senexin B or 10 μM MDV3100 (FIG. 6B)
Text: (§2) In most of CRPC patients, prostate cancer tumor cells restore their AR activities despite low-androgen environment or presence of AR antagonists.

[3] = tested on: AR; experiment: Promoter activity assay (firefly luciferase reporter) in HEK293 cells overexpressing full-length wild-type AR; type: cell-based; settings: for activation of androgen-responsive construct (firefly luciferase reporter under PSA gene promoter): HEK-293 cells overexpressing AR, in the presence of R1881 (FIG. 4A, FIG. 5)
[4] = tested on: LNCaP-LN3 cells; experiment: Growth of androgen-independent LNCaP-LN3 cells in androgen-depleted CSS media (cell count); type: cell-based; settings: for growth (total cell number): LNCaP-LN3 cells, 5 μM Senexin B or 10 μM MDV3100 (FIG. 6B)
Text: as §2

[5] = tested on: AR-dependent genes in LNCaP-LN3 cells; experiment: qPCR expression of AR-dependent genes KLK3 (PSA) and KLK2 in LNCaP-LN3 cells without androgen; type: cell-based; settings: for expression of KLK2 / expression of PSA: LNCaP-LN3 cells, absence of androgen, 5 μM Senexin B or 10 μM MDV3100 (FIG. 6D)
Text: (§3) Endogenous AR activities in these cells were estimated by qPCR analysis of mRNA expression of AR-dependent genes, KLK3 (PSA) and KLK2.

[6] = tested on: AR-dependent genes in CWR22rv1 cells; experiment: qPCR expression of AR-dependent genes KLK3 (PSA) and KLK2 in CWR22rv1 cells without androgen; type: cell-based; settings: for expression of KLK2 / expression of PSA: absence of androgen, 5 μM Senexin B or 10 μM MDV3100 (FIG. 6D)
Text: as §3

[7] = tested on: C4-2 cells; experiment: Growth of androgen-independent C4-2 cells in androgen-depleted CSS media (cell count); type: cell-based; settings: different concentrations of Senexin B (FIG. 6A)
Text: as §2

[8] = tested on: PC-3 cells; experiment: Growth of PC-3 cells in androgen-depleted CSS media (cell count); type: cell-based; settings: different concentrations of Senexin B, p<0.05 vs DMSO (FIG. 7)
Text: PC-3 cell growth was previously shown to be inhibited by the inhibition of transcription factor NFκB^43-45, and CDK8/19 inhibition was discovered by Senex to decrease the induction of NFκB transcriptional activity (PCT Publication WO2013/040153).

[9] = tested on: AR-dependent genes in C4-2 cells; experiment: qPCR expression of AR-dependent genes KLK3 (PSA) and KLK2 in C4-2 cells without androgen; type: cell-based; settings: CSS media 2d, treated 24 hours (FIG. 6C)
Text: as §3

[10] = Water solubility; type: physicochemical
Text: as §1

[11] = tested on: androgen-responsive genes in LNCaP cells; experiment: qPCR expression of androgen-responsive genes in LNCaP cells; type: cell-based
[12] = tested on: LN-CaP LN3 (LN3) prostate cancer cells xenograft; experiment: LNCaP-LN3 xenograft growth in nude mice; type: in vivo, nude male mice; settings: 40 mg/kg i.p. daily
Experimental: 6-8 week-old nude male mice (Jackson Laboratory) were subcutaneously injected with 2 million LN-CaP LN3 (LN3) prostate cancer cells in the right flank, with Matrigel. Visible tumors formed ˜14 days after injection. […] The tumor size was measured by caliper 3 times per week and calculated by the equation length*width*width*0.5. […] At the end of the experiment, mice from each group were sacrificed to determine final tumor weight.

Chain of CDK8 (P49336 whole entry): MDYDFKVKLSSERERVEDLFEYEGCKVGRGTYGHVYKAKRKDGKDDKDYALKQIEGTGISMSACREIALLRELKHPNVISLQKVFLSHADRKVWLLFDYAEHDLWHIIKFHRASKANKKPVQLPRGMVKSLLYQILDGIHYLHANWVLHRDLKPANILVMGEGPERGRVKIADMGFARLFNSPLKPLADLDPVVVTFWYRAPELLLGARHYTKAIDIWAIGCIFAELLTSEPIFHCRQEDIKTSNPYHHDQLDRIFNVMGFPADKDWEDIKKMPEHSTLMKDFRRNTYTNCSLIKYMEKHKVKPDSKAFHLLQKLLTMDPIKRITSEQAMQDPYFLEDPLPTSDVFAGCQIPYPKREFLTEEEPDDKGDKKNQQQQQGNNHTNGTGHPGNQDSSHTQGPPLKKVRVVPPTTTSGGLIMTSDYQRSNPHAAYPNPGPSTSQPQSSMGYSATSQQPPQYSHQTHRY

SMILES: CN1CCN(C(=O)c2ccc3cc(CCNc4ncnc5ccc(C#N)cc45)ccc3c2)CC1 [Senexin B]
- Kd [1]: 0.14 µM
- growth (total cell number) [2]: significantly inhibited
- androgen-independent growth (total cell number) ([2]; different concentrations of Senexin B (FIG. 6A)): strongly inhibited
- activation of androgen-responsive construct (firefly luciferase reporter under PSA gene promoter) [3]: significantly inhibited
- androgen-independent growth (total cell number) ([4]; LN3 cells, different concentrations of Senexin B (FIG. 6A)): strongly inhibited
- growth (total cell number) [4]: strongly inhibited
- expression of PSA and KLK2 ([5]; LN3 cells, CSS media 2d, treated 24 hours (FIG. 6C)): down-regulated
- expression of KLK2 [5]: strongly down-regulates
- expression of PSA [5]: strongly down-regulates
- expression of PSA and KLK2 ([6]; CSS media 2d, treated 24 hours (FIG. 6C)): down-regulated
- expression of KLK2 [6]: strongly down-regulates
- expression of PSA [6]: strongly down-regulates
- androgen-independent growth (total cell number) [7]: strongly inhibited
- growth of PC-3 cells (total cell number) [8]: inhibited
- expression of PSA and KLK2 [9]: down-regulated
- water solubility [10]: ≤ 50 mM
- effect on the inhibition of androgen-inhibited genes AR, OPRK1, STXBP6 by androgen ([11]; LNCaP cells, Senexin B 1 μM and 4 μM (FIG. 2C)): did not interfere with the inhibition
- androgen-stimulated transcriptional activation of androgen-responsive genes PSA (KLK3), KLK2, TMPRSS2, SGK1, KLF5, PGC ([11]; LNCaP cells, Senexin B 1 μM and 4 μM, androgen-supplemented (500 pM R1881, 24 hr after 5-day deprivation) (FIG. 2B)): significantly inhibited
- androgen-stimulated transcription of androgen-responsive genes after pretreatment ([11]; androgen-deprived LNCaP cells, Senexin B 1 μM and 4 μM added 1 hr before 500 pM R1881, p<0.05 vs DMSO (FIG. 3)): significantly inhibited
- appearance (health) of treated mice ([12]; 5 days per week for 2 weeks): looked as healthy as the mice in the vehicle control group
- body weight of the hosts ([12]; 5 days per week for 2 weeks (FIG. 9)): no effects
- tumor growth (tumor volume) ([12]; 5 days per week for 2 weeks, relative to vehicle control (FIG. 8)): dramatically inhibits
- final tumor weight ([12]; 5 days per week for 2 weeks, vs control group (FIG. 10)): significantly lower

SMILES: N#Cc1ccc2ncnc(NCCc3ccccc3)c2c1 [Senexin A]
- activation of androgen-responsive construct (firefly luciferase reporter under PGC gene promoter) ([3]; HEK293 cells overexpressing AR, Senexin A 1 μM and 5 μM, in the presence of R1881 (FIG. 4B)): significantly inhibits
- activation of androgen-responsive construct (firefly luciferase reporter under PSA gene promoter) [3]: significantly inhibited
- androgen-stimulated transcriptional activation of androgen-responsive genes PSA (KLK3), KLK2, TMPRSS2, PGC ([11]; LNCaP cells, Senexin A 5 μM, androgen-supplemented (500 pM R1881) or androgen-deprived conditions (FIG. 2A)): significantly inhibited

SMILES: CNC(=O)c1ccc(N2C(=S)N(c3ccc(C#N)c(C(F)(F)F)c3)C(=O)C2(C)C)cc1F [MDV3100, enzalutamide, reference compound]
- growth (total cell number) [2]: does not inhibit
- growth (total cell number) [4]: weakly inhibited
- expression of KLK2 [5]: does not down-regulate
- expression of PSA [5]: weakly down-regulates
- expression of KLK2 [6]: does not down-regulate
- expression of PSA [6]: does not down-regulate
